Assay results reported in patent publication US20220119431A1, “SALT OF EGFR INHIBITOR, CRYSTAL FORM, AND PREPARATION METHOD THEREFOR” (priority 2019, published 2022).

Columns and labels:
Format in all cases: physicochemical
[1] = Stability test, influencing factors (illumination, high temperature, high humidity)
Experimental: Illumination test chamber, model: SHH-100GD-2, conditions: 5000±500 lux (visible light) and 90 mw/cm^2 (ultraviolet).
Electric heating blast drying oven, model: GZX-9140MBE condition: 60° C.
Constant temperature and humidity chamber, model: SHH-250SD, condition: 25° C./75% RH.
(§1) Influencing factor experimental conditions (high temperature of 60° C., high humidity of 75% RH, illumination): an appropriate amount of crystalline form A of the compound of formula (IIA) was placed in a dry and clean open weighing bottle, then the bottle was placed into a dryer under different conditions, and then placed into a corresponding thermostat for observation. The bottle was taken out after being placed for 5 days, 10 days and 30 days, and related substances and contents thereof were measured. Accelerated and long-term experimental conditions (40° C./75% RH, 25° C./60% RH): an appropriate amount of crystalline form A of the compound of formula (IIA) was filled into a double-layer LDPE bags, each layer of LDPE bag was sealed by a binding buckle, then put into an aluminum foil bag for heat sealing, and then put into a corresponding thermostat to observe acceleration and long-term stability.

[2] = Stability test, accelerated test 40° C./75% RH (Test Example 4); settings: 40° C. ± 2° C., 75% RH ± 5% RH
Excerpt: The conditions and the method for the raw material stability test are mainly based on related requirements such as “Guidelines for the Stability Test of APIs and Preparations” (General Principles 9001 of the Four Parts of the Chinese Pharmacopoeia, 2015 Edition) and technical guidelines for stability study on chemical drugs (raw materials and preparations) issued by the National Medical Products Administration in February, 2015 (revised), and are specifically shown in Table 14.

[3] = Stability test, accelerated conditions 40° C./75% RH (Test Example 3); settings: 40° C. ± 2° C./75% RH ± 5% RH
Experimental: (§2) Constant temperature and humidity chamber, model: LDS-800Y, condition: 40° C./75% RH and 25° C./60% RH.
as §1

[4] = Stability test, long-term conditions 25° C./60% RH (Test Example 3); settings: 25° C. ± 2° C./60% RH ± 5% RH
Experimental: as §2, §1

[5] = High humidity (25° C./75% RH), Day 5
[6] = High temperature (60° C.), Day 5
[7] = High temperature (60° C.), Day 10
[8] = High temperature (60° C.), Day 30
[9] = Light stability experiment, Day 5
[10] = Light stability experiment, Day 10

COc1cc(N2CCC(N3CCN(C)CC3)CC2)c(C)cc1Nc1ncc(Br)c(Nc2ccc3nccnc3c2P(C)(C)=O)n1
Content [1, 5]: 99.6%
Total impurities [1, 5]: 1.41%
Content [1, 6]: 99.1%
Total impurities [1, 6]: 1.59%
Content [1, 7]: 101.6%
Total impurities [1, 7]: 1.63%
Content [1, 8]: 99.4%
Total impurities [1, 8]: 1.71%
Content ([1]; Initial value): 97.3%
Total impurities ([1]; Initial value): 1.63%
Content [1, 9]: 97.1%
Total impurities [1, 9]: 1.99%
Content [1, 10]: 95.1%
Total impurities [1, 10]: 2.21%
Sum of impurities ([2]; month 0): 1.18%
Water ([2]; month 0): 3.0%
Sum of impurities ([2]; month 1): 1.10%
Water ([2]; month 1): 3.0%
Sum of impurities ([2]; month 2): 1.18%
Water ([2]; month 2): 3.5%
Sum of impurities ([2]; month 3): 1.30%
Water ([2]; month 3): 3.2%
Sum of impurities ([2]; month 6): 1.18%
Water ([2]; month 6): 2.8%
Content ([3]; 0 day): 97.3%
Total impurities ([3]; 0 day): 1.63%
Content ([3]; 1 month): 99.1%
Total impurities ([3]; 1 month): 1.71%
Content ([3]; 2 months): 98.1%
Total impurities ([3]; 2 months): 1.50%
Content ([3]; 3 months): 98.6%
Total impurities ([3]; 3 months): 1.56%
Content ([3]; 6 months): 97.9%
Total impurities ([3]; 6 months): 1.61%
Content ([4]; 0 day): 97.3%
Total impurities ([4]; 0 day): 1.63%
Content ([4]; 3 months): 99%
Total impurities ([4]; 3 months): 1.61%
Content ([4]; 6 months): 98.2%
Total impurities ([4]; 6 months): 1.73%
Content ([4]; 9 months): 99.4%
Total impurities ([4]; 9 months): 1.83%
Content ([4]; 12 months): 97.7%
Total impurities ([4]; 12 months): 1.69%
